This note sets out measurements from patent US8927726B2, “N-cyclopropyl-N-piperidinyl-amide derivatives, pharmaceutical compositions containing them and uses thereof” (Boehringer Ingelheim International GmbH, priority 2012, dated 2015).

The first assay has as its target T1, human GPR119 (Homo sapiens, UniProt Q8TDV5).
T1 construct: expressed in transfected cells; host or cells: MIN6 (mouse insulinoma) cells, stably transfected
T1 sequence (Q8TDV5 1-335): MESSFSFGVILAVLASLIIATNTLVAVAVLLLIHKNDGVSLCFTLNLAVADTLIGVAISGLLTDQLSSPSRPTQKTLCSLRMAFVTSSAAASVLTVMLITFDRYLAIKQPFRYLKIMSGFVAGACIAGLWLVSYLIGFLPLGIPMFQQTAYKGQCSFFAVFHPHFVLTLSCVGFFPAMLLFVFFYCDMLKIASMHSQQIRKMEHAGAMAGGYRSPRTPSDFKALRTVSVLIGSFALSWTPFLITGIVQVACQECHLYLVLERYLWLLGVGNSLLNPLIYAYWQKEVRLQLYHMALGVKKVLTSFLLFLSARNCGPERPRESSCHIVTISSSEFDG
The assay is described as follows: AlphaScreen cAMP assay in MIN6 cells stably transfected with human GPR119. The assay is classed as cell-based. As to conditions: Min-6/hGPR119 cells, 45 minutes incubation at room temperature. The procedure: The compounds of formula I according to the invention modulate the activity of the G-protein-coupled receptor GPR119. The effect of the compounds on the activation of GPR119 and on the stimulation of intracellular cAMP concentration is determined using the AlphaScreen cAMP Assay Kit (Cat. No. #6760625R) made by PerkinElmer.
MIN6 cells [Miyazaki Jet al. Endocrinology. 1990 July; 127(1):126-32] are stably transfected with an expression vector for human GPR119 cDNA (Acc. No. NP_848566). Min-6 / hGPR119 cells are cultured in DMEM, 10% FBS, 50 μM β-mercaptoethanol, 0.3 mg/mL Geniticin, 2 mM GlutaMAX at 37° C. 5% CO2. For the assay, the cells are seeded in Optiplates (white, 384-well, 160W-barcoded, TC, sterile with lid, Cat. No. #6007688 (Perkin Elmer); 10000 cells/well; 50 μl). The plates covered with lids are then incubated for 24 hours at 37° C./5% CO2. After the medium is aspirated from the wells completely, 10 μl of the test compound are added, the compounds are diluted using stimulating buffer (140 mM NaCl, 3.6 mM KCl, 0.5 mM NaH2PO4, 0.5 mM MgSO4, 1.5 mM CaCl2, 10 mM Hepes, 5 mM NaHCO3; pH 7.4. 0.5 mM IBMX and 0.1% BSA, the final DMSO concentration is 1%). After 45 minutes incubation at room temperature (approx. 20° C.), the cAMP concentrations are determined using the AlphaScreen cAMP Assay Kit (Cat.No.# 6760625R from PerkinElmer).
On the technique in general: Alpha assays give light when donor and acceptor beads are brought close together.
In the case of `O=C(c1cnc(-n2cncn2)cn1)N(C1CC1)[C@@H]1CCN(CC2(C(F)(F)F)CC2)C[C@@H]1F` (single isomer, unassigned) [Example 13], the EC50 was found to be 2 nM. On the same count and under the same terms, to `CC(C)(F)CN1CCC(N(C(=O)c2ccc(-c3cnco3)cc2)C2CC2)CC1` [Example 1, N-Cyclopropyl-N-[1-(2-fluoro-2-methyl-propyl)-piperidin-4-yl]-4-oxazol-5-yl-benzamide] belongs 456 nM; to `O=C(c1ccc(-c2cnco2)cc1)N(C1CC1)C1CCN(CCC(F)(F)F)CC1` [Example 2, N-Cyclopropyl-4-oxazol-5-yl-N-[1-(3,3,3-trifluoro-propyl)-piperidin-4-yl]-benzamide], 643 nM; to `O=C(c1ccc(-c2cnco2)cc1)N(C1CC1)C1CCN(CC2(C(F)(F)F)CC2)CC1` [Example 3, N-Cyclopropyl-4-oxazol-5-yl-N-[1-(1-trifluoromethyl-cyclopropylmethyl)-piperidin-4-yl]-benzamide], 79 nM. `CC(C)(F)CN1CCC(N(C(=O)c2ccc(-c3cnco3)c(F)c2)C2CC2)CC1` [Example 4, N-Cyclopropyl-3-fluoro-N[1-(2-fluoro-2-methyl-propyl)-piperidin-4-yl]-4-oxazol-5-yl-benzamide]: the EC50 amounted to 63 nM.

`N#Cc1ccc(-c2cc(C(=O)N(C3CC3)C3CCN(CC4(C(F)(F)F)CC4)CC3)no2)cc1` [Example 5, 5-(4-Cyano-phenyl)-isoxazole-3-carboxylic acid cyclopropyl-[1-(1-trifluoromethyl-cyclopropylmethyl) -piperidin-4-yl]-amide] yielded an EC50 of 27 nM.

Compound `CC(C)(F)CN1CCC(N(C(=O)c2cc(-c3ccc(C#N)cc3)on2)C2CC2)CC1` [Example 6, 5-(4-Cyano-phenyl)-isoxazole-3-carboxylic acid cyclopropyl-[1-(2-fluoro-2-methyl-propyl) -piperidin-4-yl]-amide] yielded an EC50 of 50 nM. Still for that read-out and setting: the same measure for `N#Cc1ccc(-c2cc(C(=O)N(C3CC3)C3CCN(CC4(C(F)(F)F)CC4)CC3)on2)c(F)c1` [Example 7, 3-(4-Cyano-2-fluoro-phenyl)-isoxazole-5-carboxylic acid cyclopropyl-[1-(1-trifluoromethyl-cyclopropylmethyl)-piperidin-4-yl]-amide]: 9 nM; for `CC(C)(F)CN1CCC(N(C(=O)c2cc(-c3ccc(C#N)cc3F)no2)C2CC2)CC1` [Example 8, 3-(4-Cyano-2-fluoro-phenyl)-isoxazole-5-carboxylic acid cyclopropyl-[1-(2-fluoro-2-methyl-propyl)-piperidin-4-yl]-amide]: 22 nM.

For the compound `N#Cc1ccc(-c2cc(C(=O)N(C3CC3)C3CCN(CC4(C(F)(F)F)CC4)CC3)no2)c(F)c1` [Example 9, 5-(4-Cyano-2-fluoro-phenyl)-isoxazole-3-carboxylic acid cyclopropyl-[1-(1-trifluoromethyl-cyclopropylmethyl)-piperidin-4-yl]-amide], it took 6 nM to reach a half-maximal effect (EC50). The same measure, in the same setting: to `CC(C)(F)CN1CCC(N(C(=O)c2cc(-c3ccc(C#N)cc3F)on2)C2CC2)CC1` [Example 10, 5-(4-Cyano-2-fluoro-phenyl)-isoxazole-3-carboxylic acid cyclopropyl-[1-(2-fluoro-2-methyl-propyl)-piperidin-4-yl]-amide] belongs 19 nM.

The target in a further assay is T2, mutant form of the human GPR119 receptor (Homo sapiens, UniProt Q8TDV5, S329A/T327A).
T2 construct: X1, the printed 24-residue N-terminal leader ([…]) that replaces Met1; (N); expressed in transfected cells
T2 sequence (Q8TDV5 2-335 T327A/S329A): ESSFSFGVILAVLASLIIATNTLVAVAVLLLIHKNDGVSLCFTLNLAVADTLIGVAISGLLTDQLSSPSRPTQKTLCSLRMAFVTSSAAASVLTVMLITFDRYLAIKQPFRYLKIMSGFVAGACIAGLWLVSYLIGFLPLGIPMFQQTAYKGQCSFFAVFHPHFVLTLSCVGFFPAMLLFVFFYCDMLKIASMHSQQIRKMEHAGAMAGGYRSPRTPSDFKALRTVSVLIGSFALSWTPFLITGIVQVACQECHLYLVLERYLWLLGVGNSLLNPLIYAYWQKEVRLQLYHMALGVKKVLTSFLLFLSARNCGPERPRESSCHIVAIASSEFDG
The assay is described as follows: LANCE cAMP-384 assay in HEK293 cells stably expressing mutant human GPR119. The assay is classed as cell-based. The note with it: mutant human GPR119 (SEQ ID No. 1), 20 min at 37 C. The procedure:
Quantitative detection of cAMP accumulation from cells expressing human GPR119 receptor is achieved using Perkin Elmer's LANCE cAMP-384 Kit (Cat #AD0264) according to the manufacturer's protocol. Briefly, HEK293 cells stably expressing a mutant form of the human GPR119 receptor as assay tool (Methionine 1 replaced with the amino acid sequence […], and T327 & S329 changed to alanines; SEQ ID No. 1) are grown to 50-70% confluency in cell culture media (DMEM, 10% heat inactivated Fetal Bovine Serum, 50 I.U./mL penicillin, 50 μg/mL streptomycin, 10 mM HEPES, 20 μg/mL G418 Sulfate). On the day of the assay, GPR119 stable HEK293 cells are lifted from the tissue culture plate and 1000 cells/well are incubated along with various concentrations of test compounds for 20 min at 37+ C. Detection Buffer (50mM HEPES, 10mM calcium chloride, 0.35% Triton X-100, 1 mg/mL BSA) containing cAMP-specific antibody is then added to all wells and allowed to equilibrate in the dark for 10 minutes at room temperature. Upon equilibration, Detection Buffer containing europium-labeled cAMP tracer complex is added to all wells and allowed to react for 1 hour at room temperature. After 1 hour, bound europium-labeled cAMP tracer is measured using a Perkin Elmer Envision plate reader. The quantity of cAMP generated in each well is derived from a standard curve. EC50 is determined using nonlinear regression analysis of the cAMP values over a range of agonist concentration (12 points spanning the range from 30 μM to 100 pM).
Background: TR-FRET usually uses a lanthanide donor and a delayed reading to cut background.
Turning to `O=C(c1ccc(-n2cncn2)c(F)c1)N(C1CC1)[C@@H]1CCN(CC2(C(F)(F)F)CC2)C[C@@H]1F` (single isomer, unassigned) [Example 11], the EC50 amounted to 10 nM. The compound `Cc1nnnn1-c1ccc(C(=O)N(C2CC2)[C@@H]2CCN(CC3(C(F)(F)F)CC3)C[C@@H]2F)cn1` (single isomer, unassigned) [Example 12] returned an EC50 of 12 nM.

`Cc1nccn1-c1ncc(C(=O)N(C2CC2)[C@@H]2CCN(CC3(C(F)(F)F)CC3)C[C@@H]2F)cn1` (single isomer, unassigned) [Example 14]: the EC50 came out at 27 nM. The compound `Cc1ncn(-c2cnc(C(=O)N(C3CC3)[C@@H]3CCN(CC4(C(F)(F)F)CC4)C[C@@H]3F)cn2)n1` (single isomer, unassigned) [Example 15] had a half-maximal effective concentration (EC50) of 30 nM.

What is called EC50 is the concentration that produces a half-maximal response. Read a low EC50 as higher potency in that assay.
